Results published in patent US20240299421A1, “CANNABIDIOL COMPOSITIONS AND USES THEREOF” (PHARMOTECH SA, priority 2020, published 2024).
“Also recorded” adds a separate entry of the source.

Experiments:
[1] = molecular target: CB2 receptors (Homo sapiens, UniProt P34972); conditions: compared with THC; cited from earlier work
[2] = tested on: IBH horse skin lesions; assay: Topical CBD oil formulation on skin lesions of horses diagnosed with IBH (pruritus score, IBH lesion score); type: in vivo, Equus caballus (horse) and Equus ferus caballus (poney); conditions: 1% (w/w) CBD in sesame oil, topical once daily, 4 weeks
Method: (§1) The application was made by hand (using a cotton) and a glove was used for massaging the product into the affected skin area. Each horse received at minimum 1 bottle of 100 ml on Day 1 and 1 Bottle on Day 14, administration was indicated to be daily. Larger volumes have been used for larger lesions.
(§2) Safety parameters were measured by hematology measures and serum amyloid A (SSA) measures and IBH lesion score was calculated as detailed in Fettelschoss-Gabriel et al., 2018, J Allergy Clin Immunol 142(4): 1194-1205 at the beginning and at the end of the study as a disease specific observation. […] Pruritus was scored from 1-5 for each skin area affected and was calculated taking into account 3 main factors: tail scratching; mane scratching and belly scratching on ground/floor. SUM Score Pruritus-Day 1: 6 Pruritus score was calculated for Day 1, Day 14, Day 28
Then, the mean was calculated. Main pruritus signs are: tail scratching, mane scratching, face scratching and sometimes rolling on the ground for belly scratching.

[3] = Safety parameters by hematology measures; type: in vivo, Equus caballus (horse) and Equus ferus caballus (poney); conditions: 1% (w/w) CBD topical, 4 weeks
Method: as §1, §2

[4] = LC-MS/MS CBD dosing in blood/plasma after topical application; type: in vivo, Equus caballus (horse) and Equus ferus caballus (poney)

CB2 receptors, sequence (P34972 whole entry): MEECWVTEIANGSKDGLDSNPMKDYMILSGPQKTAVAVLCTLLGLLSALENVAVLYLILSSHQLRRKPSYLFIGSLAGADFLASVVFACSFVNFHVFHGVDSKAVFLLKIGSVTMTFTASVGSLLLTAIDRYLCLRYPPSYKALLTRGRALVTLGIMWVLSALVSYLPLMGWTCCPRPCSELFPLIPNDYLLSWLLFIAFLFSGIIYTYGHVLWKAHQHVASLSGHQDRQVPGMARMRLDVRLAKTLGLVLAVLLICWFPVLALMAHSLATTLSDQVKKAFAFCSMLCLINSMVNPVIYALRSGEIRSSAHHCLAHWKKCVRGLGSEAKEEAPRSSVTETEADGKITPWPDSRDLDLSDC

SMILES: C=C(C)[C@@H]1CCC(C)=C[C@H]1c1c(O)cc(CCCCC)cc1O [CBD, 2-[(1R,6R)-6-isopropenyl-3-methylcyclohex-2-en-1-yl]-5-pentylbenzene-1,3-diol]
- affinity for CB2 receptors [1]: very low affinity
- IBH symptoms during treatment (IBH lesion score) ([2]; 11 animals with mild to moderate IBH): clear decrease
- pruritus symptoms during treatment (pruritus score) ([2]; score Day 1, Day 14, Day 28): reduce pruritus score; also recorded: clear decrease
- WBC count [3]: No particular trend
- eosinophile count [3]: No particular trend
- CBD concentration in plasma ([4]; 1% topical concentration, LC-MS/MS): not found in detectable concentrations
- systemic absorption ([4]; at 1% topical concentration): negligible
